Assay results published in patent publication US9221838B2, “Inhibitors of AKT activity” (ALMAC DISCOVERY LIMITED, priority 2009, dated 2015).

How the values were obtained:
AKT2 = molecular target: T1, AKT2 (Homo sapiens, UniProt P31751); experiment: AKT Kinase Assay (IMAP fluorescent polarisation) vs AKT2; assay type: biochemical
T1 construct: purchased SignalChem
In short: (§1)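 Phosphorylation of FAM-Crosstide detected by IMAP binding and fluorescence polarisation (485/528 nm), with IC50 fitted from % inhibition versus vehicle. Compound was incubated 45 min with enzyme, then reacted 1 h at room temperature with ATP and peptide in Tris/MgCl2/DTT buffer. Dose response had fourteen half-log points.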

AKT3 = molecular target: T2, AKT3 (Homo sapiens, UniProt Q9Y243); experiment: AKT Kinase Assay (IMAP fluorescent polarisation) vs AKT3; assay type: biochemical
T2 construct: purchased SignalChem
T2 sequence (Q9Y243 whole entry): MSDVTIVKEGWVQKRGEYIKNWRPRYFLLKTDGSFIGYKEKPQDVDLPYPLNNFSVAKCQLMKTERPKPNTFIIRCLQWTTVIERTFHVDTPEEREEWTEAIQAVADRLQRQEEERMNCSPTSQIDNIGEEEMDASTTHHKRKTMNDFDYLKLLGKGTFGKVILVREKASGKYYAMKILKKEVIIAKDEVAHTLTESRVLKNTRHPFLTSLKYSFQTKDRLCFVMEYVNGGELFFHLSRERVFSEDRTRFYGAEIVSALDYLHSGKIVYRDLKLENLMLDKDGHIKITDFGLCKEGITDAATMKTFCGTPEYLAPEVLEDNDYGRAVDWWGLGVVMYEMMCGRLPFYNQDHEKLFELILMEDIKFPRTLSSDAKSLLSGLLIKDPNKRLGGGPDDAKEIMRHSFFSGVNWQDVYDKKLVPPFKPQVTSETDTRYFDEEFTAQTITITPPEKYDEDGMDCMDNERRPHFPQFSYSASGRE
In short: as §1

[1] = tested on: PC3 and/or LnCaP cell lines; experiment: in vitro cell proliferation assay (Cell Titre Glo); assay type: cell-based; settings: Homo sapiens, read-out: inhibition of proliferation, IC50
Method: Testing of the compounds was also performed using in vitro cell proliferation assays:
Cell Titre Glo (Promega) is a highly sensitive homogeneous reagent used to determine the viability of cells. The reagent uses a stable form of luciferase to measure ATP as an output of viability. The luminescent values generated in the assay are directly proportional to the number of viable cells in your assay.
The following materials were used: White, clear bottomed 96 well assay plates (Costar); Cell titre Glo reagents; LnCaP (ECACC) cells grown in RPMI medium (Invitrogen) supplemented with 10 mM HEPES (Invitrogen), 1 mM Sodium pyruvate (Invitrogen), 2 mM L-Glutamine (Invitrogen) and 10% Foetal calf serum (Invitrogen); PC3 (ECACC) cells grown in RPMI medium supplemented with 10% Foetal calf serum (Invitrogen); Trypsin (Invitrogen); PBS (Invitrogen); Biotek Synergy 4 Hybrid Plate reader; 96 well plate shaker (Stuart SSL5); Eppendorf 5414 desk-top centrifuge; Beckman Coulter cell counter Z1 single threshold system.
Prostate cell lines, PC3 and LnCaP, were washed, detached and re-suspended in their respective fresh media. The cells were pelleted by centrifugation (Eppendorf 5414) and spent supernatant discarded. The cells were re-suspended by vortex mixing, counted and seeded into clear bottom white 96 well plates at a density of 5000 cells per well. The cells were incubated (Sanyo) overnight at 37° C. ([…]), and next day treated with increasing concentrations of test compound formulated in fresh medium. The plates were returned to the incubator for 72 hours. […]
The cell viability post compound treatment was determined by the luminescent intensity emitted from the drug treated wells in the plate. In brief, the assay plate was placed in the Biotex Synergy 4 Hybrid plate reader and the luminescence read in each well. The compound treated wells were compared to vehicle treated wells and the % inhibition of cell viability calculated.
The data was analysed using GraphPad Prism, with IC50 values generated using non-linear regression of the data set.

GSK3β phosphorylation = experiment: phosphorylation status of members of the AKT/PI3K pathway via ELISA; assay type: cell-based; settings: measured at 48 h, read-out: inhibition of GSK3β phosphorylation, IC50
AKT1 = molecular target: T3, AKT1 (Homo sapiens, UniProt P31749); experiment: AKT Kinase Assay (IMAP fluorescent polarisation) vs AKT1; assay type: biochemical
T3 construct: purchased SignalChem
T3 sequence (P31749 whole entry): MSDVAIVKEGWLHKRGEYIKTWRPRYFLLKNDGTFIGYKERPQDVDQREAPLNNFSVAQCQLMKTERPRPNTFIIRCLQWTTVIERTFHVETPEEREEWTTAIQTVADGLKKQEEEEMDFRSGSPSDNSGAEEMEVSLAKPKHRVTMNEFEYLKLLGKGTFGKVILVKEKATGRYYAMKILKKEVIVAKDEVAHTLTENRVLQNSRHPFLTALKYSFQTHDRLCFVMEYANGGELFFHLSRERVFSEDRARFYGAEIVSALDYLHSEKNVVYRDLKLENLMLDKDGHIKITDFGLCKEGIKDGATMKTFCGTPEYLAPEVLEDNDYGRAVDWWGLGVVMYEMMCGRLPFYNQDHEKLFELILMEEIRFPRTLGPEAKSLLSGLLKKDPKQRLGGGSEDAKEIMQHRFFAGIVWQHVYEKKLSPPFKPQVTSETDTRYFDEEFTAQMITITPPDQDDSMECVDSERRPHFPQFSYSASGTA
In short: as §1

T1 sequence (P31751 whole entry): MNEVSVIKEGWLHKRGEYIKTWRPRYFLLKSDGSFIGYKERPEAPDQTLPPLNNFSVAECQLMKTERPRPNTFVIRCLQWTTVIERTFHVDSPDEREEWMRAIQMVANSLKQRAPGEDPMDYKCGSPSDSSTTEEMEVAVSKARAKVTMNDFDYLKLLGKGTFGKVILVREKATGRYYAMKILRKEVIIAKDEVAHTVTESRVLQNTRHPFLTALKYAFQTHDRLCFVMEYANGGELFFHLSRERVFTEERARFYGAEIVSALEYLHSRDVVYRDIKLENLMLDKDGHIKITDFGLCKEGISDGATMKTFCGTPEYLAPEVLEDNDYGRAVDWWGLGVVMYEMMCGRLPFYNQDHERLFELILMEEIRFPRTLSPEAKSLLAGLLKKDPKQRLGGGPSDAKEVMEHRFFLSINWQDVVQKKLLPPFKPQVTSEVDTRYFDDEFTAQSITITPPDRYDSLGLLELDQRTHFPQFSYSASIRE

In the case of `NC1(c2ccc(-c3nc4c(cc3-c3ccccc3)-c3n[nH]cc3CC4)cc2)CCC1` [Example 4, 1-(4-(8-phenyl-4,5-dihydro-2H-pyrazolo[3,4-f]quinolin-7-yl)phenyl)cyclobutanamine], the IC50 (AKT2) is reported as 100 to 1000 nM, the IC50 (AKT3) is reported as over 10000 nM and the IC50 [1] is reported as under 10000 nM. For the same compound, the IC50 (GSK3β phosphorylation) was under 100 nM and the IC50 (AKT1) was at most 100 nM.
